“Also recorded” adds a separate entry of the source.
How the values were obtained:
WT and PS1 KO cells = test: Intracellular protein degradation (pulse-chase, [3H]-leucine) in WT and PS1 KO blastocysts; format: cell-based, Murine; details: serum withdrawal, NH4Cl 20 mM, 3MA 10 mM
Experimental: (§1) Total protein degradation in cultured cells was measured by pulse-chase experiments (Auteri et al., 1983, J Cell Physiol 115, 167-174). Confluent cells were labeled with [^3H]-leucine (2 μCi/ml) for 48 hrs at 37° C. in order to preferentially label long-lived proteins. Following labeling, cells were extensively washed and maintained in complete medium (DMEM+10% fetal bovine serum), under which conditions autophagy is suppressed, or in serum-deprived medium, where autophagy is induced. Under both conditions, after washing the cells, the medium was supplemented with unlabeled 2.8 mM leucine to prevent [^3H]-leucine reincorporation into newly synthesized proteins. Aliquots of the medium taken at different time-points were precipitated with 10% TCA, filtered using a 0.22 μm pore membrane and radioactivity in the flow-through was measured. Proteolysis is expressed as the percentage of the initial acid-precipitable radioactivity (protein) transformed to acid-soluble radioactivity (amino acids and small peptides) over time. To inhibit autophagy in this system, 20 mM NH4Cl or 10 mM 3MA was added immediately after the labeling period and maintained at that concentration throughout the chase. […] Protein synthesis was determined as the incorporation of [^3H]leucine into acid-insoluble material in the presence of an excess (2.8 mM) unlabeled leucine in the medium. […]

PS1KO blastocysts = test: Lysosomal pH measurement with Dextran conjugated Lysosensor Yellow/Blue in PS1KO cells; format: cell-based, Murine; details: for effect of pretreatment on the action of isoproterenol on lysosomal pH / effect on elevated lysosomal pH in PS1KO cells: PS1KO cells; for effect of pretreatment on the action of isoproterenol on lysosomal pH: pretreatment before isoproterenol, FIG. 10F; for effect on elevated lysosomal pH in PS1KO cells: FIG. 10A/G; for lysosomal pH after treatment relative to WT lysosomal pH (ANOVA, Dunnet's post-test): PS1KO blastocysts, FIG. 11
Experimental: For results presented in Example 1, quantification of lysosomal pH was determined using Dextran conjugated Lysosensor Yellow/Blue DND-160 (Invitrogen) as follows. Wild Type and PS1KO blastocysts were grown in High Glucose DMEM+15% FBS with antibiotics to ˜90% confluency. Cells were then trypsinized, harvested (1×10^6 cells/ml) and loaded with 1 mg/ml of Lysosensor-dextran for 1 hour at 37° C. with 5% CO2. The cells were then washed 3× in HBSS and aliquoted at […] into a black 96-well microplate. pH calibration was performed according to the protocol established by Diwu et al (Diwu et al., (1999). Chem Biol 6, 411-418). Briefly, wild type and PS1KO blastocysts were treated with 10 μM monensin and 10 uM nigericin in MES buffer (5 mM NaCl, 115 mM KCL, 1.3 mM MgSO4, 25 mM MES), with the pH adjusted to a range from 3.5-7.0. The samples were read in a Wallac Victor 2 fluorimeter (Perkin Elmer) with excitation at 355 nm. The ratio of emission 440/535 nm was then calculated for each sample. The pH values were determined from the linear standard curve generated via the pH calibration samples.
In a more particular embodiment, quantification of lysosomal pH is determined using Dextran conjugated Lysosensor Yellow/Blue (Invitrogen) as follows. 3000 Wild Type and PS1KO blastocysts were seeded in multiple wells of black, clear bottom tissue culture treated 96 well dish and grown in High Glucose DMEM+15% FBS with antibiotics to ˜90% confluency (˜24 hours). 2 ul of 0.5 mg/ml lysosensor-dextran (1:100 dilution of a 5 mg/ml stock) was added and incubated for 1 hour at 37° C. with 5% CO2. The cells were then washed 3× in HBSS. See also methods and results set forth herein below in Example 2. This modified protocol represents an optimized protocol for the purposes set forth herein.
(§2) Quantification of lysosomal pH was determined using Dextran conjugated Lysosensor Yellow/Blue (Invitrogen). 3000 Wild Type and PS1KO blastocysts were seeded in multiple wells of black, clear bottom tissue culture treated 96 well dish and grown in High Glucose DMEM+15% FBS with antibiotics to ˜90% confluency (˜24 hours). 2 ul of 0.5 mg/ml lysosensor-dextran (1:100 dilution of a 5 mg/ml stock) was added and incubated for 1 hour at 37° C. with 5% CO2. The cells were then washed 3× in HBSS.
Performed according to the protocol established by Diwu et al (supra). Briefly, wild type and PS1KO blastocysts were treated with 10 uM monensin and 10 uM nigericin in MES buffer (5 mM NaCl, 115 mM KCL, 1.3 mM MgSO4, 25 mM MES), with the pH adjusted to a range from 3.5-7.0 for 7-10 min prior to lysosensor addition (the additional hour in the buffer seems to have no effect), these cells are not washed in HBSS since permeabilization with ionophores makes them susceptible to detachment.
(§3) The samples were read in a Wallac Victor 2 fluorimeter (Perkin Elmer) with excitation at 355 nm. The ratio of emission 440 nm/535 nm was then calculated for each sample. pH values were determined from the linear std curve generated via the pH calibration samples.

Cat D = target: T1, Cat D (Mus musculus, UniProt P18242); test: Active Cat D labeling with Bodipy-FL-pepstatin A in WT cells; format: cell-based, Murine; details: NH4Cl
T1 construct: endogenous in cells; host or cells: WT murine blastocyst cells (BD6)
Experimental: (§4) Immunocytochemistry was performed as previously described (Yu et al., 2005). Secondary antibodies used were from Invitrogen: goat anti-mouse/rabbit/rat Alexa Fluor 488 and goat anti-mouse/rabbit/rat Alexa Fluor 568. Cells were imaged using a plan-Apochromat 40× or 100×/1.4 oil DIC objective lens on the laser scanning confocal microscope, LSM 510 META, with LSM software v3.5 (Carl Zeiss MicroImaging Inc). Images were analysed using ImageJ program (NIH). Organelles with low internal pH were labeled by LysoTracker DND-99 dye (Invitrogen) at the final 100 nM for 30 min. Following 4% PFA fixation, cells were further counter stained with Cat D, LMAP1, or LC3 antibody for 4 hrs then visualized with Alexa Fluor 488 conjugated secondary antibody. Active Cat D was labeled by adding Bodipy-FL-pepstatin A directly to the medium at a final concentration of 1 μg/ml for 1 hr. Following 4% PFA fixation, cells were counter stained with Cat D antibody for 4 hrs and visualized with Alexa Fluor 568 conjugated secondary antibody. […] Cells were incubated for 30 min with MR-Cathepsin B prior to mounting them under the confocal microscope. To block v-ATPase proton pump activity, ammonium chloride (NH4Cl) was added directly to the medium at a final concentration of 20 mM for 6 hrs prior to LysoTracker addition.

[1] = system: PS1-FAD human fibroblasts; test: Intracellular protein degradation (pulse-chase) in control and PS1-FAD fibroblasts; format: cell-based; details: serum withdrawal; NH4Cl treatment
Experimental: as §1

Cat B [2] = test: MR-Cat B signal in WT cells; format: cell-based, Murine; details: NH4Cl treated WT cells
Experimental: as §4, with “To block v-ATPase proton pump activity, ammonium chloride (NH4Cl) was added directly to the medium at a final concentration of 20 mM for 6 hrs prior to LysoTracker addition.” left out
(§5) Active Cat D was labeled by adding Bodipy-FL-pepstatin A directly to the medium at a final concentration of 1 mg/ml for 1 hr. […] Cat B staining with MagicRed-Cathepsin B was also measured fluorometrically with a Wallac Victor 2 fluorometer.

WT blastocysts = test: Validation of lysosomal pH measurement in WT blastocysts; format: cell-based, Murine; details: FIG. 9A
Experimental: as §2
Performed according to the protocol established by Diwu et al (supra). […]
as §3
At the outset, the validity of the method described herein to measure lysosomal pH is confirmed. See, for example, FIG. 9A-D. More particularly, to assess the validity of the method of quantifying lysosomal pH, WT blastocysts were treated with chloroquine (CQ), which is known to elevate lysosomal pH. […]

[3] = in vivo; cited from earlier work
LC3-II = LC3-II levels by immunoblot / LC3 puncta in WT and PS1 KO cells; format: cell-based, Murine; details: 6 hrs
Experimental: (§6) Immunoblotting was performed as previously described (Yu et al., 2005). Briefly, cells used for Western blot analysis were lysed in buffer containing 50 mM Tris (pH=7.4), 150 mM NaCl, 1 mM EDTA, 1 mM EGTA, 1% Triton X-100 and 0.5% Tween-20 with protease and phosphatase inhibitors. Following electrophoresis on 4-20% gradient gel (Invitrogen), proteins were transferred onto 0.45 μm PVDF membranes (Millipore) and the membrane was incubated overnight in primary antibody then incubated with HRP conjugated secondary antibody. The blot was developed by ECL-kit (GE Healthcare). To assess v-ATPase V0a subunit glycosylation, lysate from WT and PS1KO cells were either treated for 24 hrs at 37° C. with PNGase F or O-glycanase using an enzymatic deglycosylation kit according to the manufacturer's instructions (PROzyme) or with Endo H (New England Biolabs) for 24 hrs at 37° C. Total glycoproteins were isolated using Glycoprotein Isolation Kit, ConA according to the manufacturer's instructions (Thermo Scientific).
Immunocytochemistry was performed as previously described (Yu et al., 2005). Secondary antibodies used were from Invitrogen: goat anti-mouse/rabbit/rat Alexa Fluor 488 and goat anti-mouse/rabbit/rat Alexa Fluor 568. […] Images were analysed using ImageJ program (NIH). […]

Cat B [4] = test: Cat B activity by MagicRed-Cathepsin B (MR-Cat B) in PS1KO cells; format: cell-based, Murine; details: PS1 KO cells
Experimental: as §4, with “To block v-ATPase proton pump activity, ammonium chloride (NH4Cl) was added directly to the medium at a final concentration of 20 mM for 6 hrs prior to LysoTracker addition.” left out
as §5

v-ATPase V0a1 subunit = test: v-ATPase V0a1 glycosylation state in WT cells (immunoblot); format: cell-based, Murine; details: 100-kDa with vs 120-kDa without tunicamycin
Experimental: as §6

T1 sequence (P18242 65-410): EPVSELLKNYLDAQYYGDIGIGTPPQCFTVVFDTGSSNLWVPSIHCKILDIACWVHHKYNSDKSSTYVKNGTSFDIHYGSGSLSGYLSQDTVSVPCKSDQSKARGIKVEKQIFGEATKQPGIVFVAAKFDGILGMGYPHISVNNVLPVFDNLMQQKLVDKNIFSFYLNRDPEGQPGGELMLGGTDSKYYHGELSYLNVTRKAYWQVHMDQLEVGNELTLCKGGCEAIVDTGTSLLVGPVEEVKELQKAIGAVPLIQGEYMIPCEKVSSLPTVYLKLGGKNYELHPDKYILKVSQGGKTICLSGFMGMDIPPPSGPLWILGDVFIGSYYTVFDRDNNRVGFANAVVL
Chain of v-ATPase V0a1 subunit (Q9Z1G4 whole entry): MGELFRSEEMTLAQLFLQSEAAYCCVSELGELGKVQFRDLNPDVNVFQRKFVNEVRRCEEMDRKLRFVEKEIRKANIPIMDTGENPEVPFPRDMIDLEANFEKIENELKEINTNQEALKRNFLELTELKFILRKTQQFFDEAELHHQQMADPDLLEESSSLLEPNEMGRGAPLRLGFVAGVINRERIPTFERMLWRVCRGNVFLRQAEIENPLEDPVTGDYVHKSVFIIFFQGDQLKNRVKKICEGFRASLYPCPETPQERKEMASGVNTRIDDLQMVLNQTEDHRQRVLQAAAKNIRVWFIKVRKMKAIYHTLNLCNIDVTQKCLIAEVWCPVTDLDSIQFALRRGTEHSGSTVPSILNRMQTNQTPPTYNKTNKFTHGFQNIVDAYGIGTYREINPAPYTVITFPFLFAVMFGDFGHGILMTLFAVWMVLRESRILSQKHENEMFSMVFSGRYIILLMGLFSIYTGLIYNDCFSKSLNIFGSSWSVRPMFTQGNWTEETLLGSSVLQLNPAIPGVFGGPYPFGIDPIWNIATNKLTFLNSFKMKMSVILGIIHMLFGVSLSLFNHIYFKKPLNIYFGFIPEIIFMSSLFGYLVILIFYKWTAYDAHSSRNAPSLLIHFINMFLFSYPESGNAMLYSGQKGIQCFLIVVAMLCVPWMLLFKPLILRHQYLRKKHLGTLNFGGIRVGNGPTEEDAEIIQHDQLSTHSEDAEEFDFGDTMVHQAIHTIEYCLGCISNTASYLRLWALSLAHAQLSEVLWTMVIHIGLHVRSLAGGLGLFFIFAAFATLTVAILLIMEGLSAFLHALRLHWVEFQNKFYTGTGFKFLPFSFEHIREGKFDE

Molecule: Cn1cnc(N)c2ncnc1-2 [3-methyladenine]
- increase in proteolysis after serum removal (WT and PS1 KO cells): only the increased proteolysis in WT cells was blocked

Molecule: O=S(=O)(NCCNC/C=C/c1ccc(Br)cc1)c1cccc2cnccc12 [H89]
- effect of pretreatment on the action of isoproterenol on lysosomal pH (PS1KO blastocysts): prevent the action of isoproterenol

Molecule: Cl.N [NH4Cl, ammonium chloride]
- Bodipy-FL-pepstatin A labeling of Cat D-positive compartments (active Cat D) (Cat D): nearly completely abolished; also recorded: minimal colocalization
- increase in proteolysis after serum removal (WT and PS1 KO cells): entirely blocked the increase of proteolysis in both cell types
- difference in proteolytic rates between control and PS1-FAD fibroblasts [1]: eliminated the difference in proteolytic rates between the two cell groups
- MR-Cat B signal (Cat B [2]): minimal

Molecule: C=CCc1ccccc1OCC(O)CNC(C)C (stereo not shown) [alprenolol]
- effect on elevated lysosomal pH in PS1KO cells (PS1KO blastocysts): did not affect lysosomal pH; also recorded: remains unchanged

Molecule: CCN(CC)CCCC(C)Nc1ccnc2cc(Cl)ccc12 (stereo not shown) [chloroquine]
- lysosomal pH of WT blastocysts (WT blastocysts): significantly elevated WT lysosomal pH

Molecule: CC(C)(C)NCC(O)c1cc(Cl)c(N)c(Cl)c1 (stereo not shown) [clenbuterol]
- crossing of the blood brain barrier (BBB) [3]: cross the blood brain barrier
- consequences on lysosomal pH and autophagy in PS1-deleted cells (PS1KO blastocysts; PS1-deleted cells, clinically relevant concentrations): desired consequences on lysosomal pH and autophagy
- lysosomal pH after treatment relative to WT lysosomal pH (ANOVA, Dunnet's post-test) (PS1KO blastocysts): did not possess significant difference from WT lysosomal pH; also recorded: did not differ significantly from that of WT lysosomal pH
- effect on elevated lysosomal pH in PS1KO cells (PS1KO blastocysts): normal levels or even hyperacidic levels; also recorded: restored to WT levels

Molecule: COc1cc(/C=C/C(=O)CC(=O)/C=C/c2ccc(O)c(OC)c2)ccc1O [curcumin]
- lysosomal pH after treatment relative to WT lysosomal pH (ANOVA, Dunnet's post-test) (PS1KO blastocysts): reduces lysosomal pH in excess of WT acidity

Molecule: CC(=O)N[C@@H](CC(C)C)C(=O)N[C@@H](CC(C)C)C(=O)N[C@H](C=O)CCCNC(=N)N [leupeptin]
- LC3 levels in PS1 KO cells (LC3-II; PS1 KO cells, 0.3 mM): did not increase LC3 levels
- LC3-II levels in WT cells (LC3-II; WT cells, rapamycin acute induction, leupeptin 0.3 mM): significantly elevated LC3-II levels and LC3-positive puncta

Molecule: CNC[C@H](O)c1cccc(O)c1 [phenylepherine]
- effect on elevated lysosomal pH in PS1KO cells (PS1KO blastocysts): did not affect lysosomal pH; also recorded: remains unchanged

Molecule: CC(C)NCC(O)COc1cccc2ccccc12 (stereo not shown) [propranol]
- effect of pretreatment on the action of isoproterenol on lysosomal pH (PS1KO blastocysts): prevent the action of isoproterenol

Molecule: Oc1ccc(C=Cc2cc(O)cc(O)c2)cc1 [resveratrol]
- active Cat B in PS1 KO cells (Cat B [4]): partially restoring active Cat B

Molecule: COc1ccc(C2CNC(=O)C2)cc1OC1CCCC1 (stereo not shown) [rolipram]
- lysosomal pH after treatment relative to WT lysosomal pH (ANOVA, Dunnet's post-test) (PS1KO blastocysts): did not differ significantly from that of WT lysosomal pH
- lysosomal pH after treatment relative to WT lysosomal pH (ANOVA, Dunnet's post-test) (PS1KO blastocysts; listed as Rolipram): did not possess significant difference from WT lysosomal pH
- effect on elevated lysosomal pH in PS1KO cells (PS1KO blastocysts): decreased lysosomal pH

Molecule: tunicamycin
- gel mobility of v-ATPase V0a1 subunit (v-ATPase V0a1 subunit): increase in mobility
